The results in this text go back to US10669258B2, “3-sulfonyl-5-aminopyridine-2,4-diol APJ agonists” (BRISTOL-MYERS SQUIBB COMPANY, priority 2016, dated 2020).

The assay deals with T1, human APJ receptor (Homo sapiens, UniProt P35414).
T1 construct: expressed in transfected cells; host or cells: HEK293
T1 sequence (P35414 1-380): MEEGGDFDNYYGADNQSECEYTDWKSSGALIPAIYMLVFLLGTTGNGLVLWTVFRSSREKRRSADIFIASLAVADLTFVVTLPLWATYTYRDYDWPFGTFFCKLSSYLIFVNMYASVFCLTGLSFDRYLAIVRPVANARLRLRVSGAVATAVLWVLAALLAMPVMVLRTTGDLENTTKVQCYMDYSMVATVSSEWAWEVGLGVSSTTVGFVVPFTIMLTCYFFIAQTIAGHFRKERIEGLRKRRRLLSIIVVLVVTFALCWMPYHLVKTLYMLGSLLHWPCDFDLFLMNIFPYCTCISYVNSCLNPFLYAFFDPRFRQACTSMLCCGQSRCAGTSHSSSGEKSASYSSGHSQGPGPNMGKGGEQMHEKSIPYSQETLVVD
As to the kind of experiment: Intracellular cAMP accumulation assay (APJ hcAMP, HTRF). It is filed as cell-based. Conditions: HEK293 cells stably expressing human APJ receptor; inhibition of forskolin-mediated cAMP production; Table 1; read-out: hAPJ cAMP EC50 Potency range. The method, boiled down:
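HEK293 cells stably expressing the receptor (5,000/well) treated with compound plus […] and 2 μM forskolin for 30 min at room temperature; cAMP by HTRF against a cAMP standard curve. EC50 from variable-slope sigmoidal fit; Ymax as % of (Pyr1)apelin-13 inhibition.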

pEC50: −log10 of the molar value.

Regarding `CCCCc1nc(O)c(S(=O)(=O)c2ccc(-c3ccc(F)nc3C)cc2)c(O)c1N(CC)c1cc(C)cc(C)c1` [Example 135, 6-butyl-5-((3,5-dimethylphenyl)(ethyl)amino)-3-((4-(6-fluoro-2-methylpyridin-3-yl)phenyl)sulfonyl)pyridine-2,4-diol], the pEC50 is 8.00 to 11.00. As to `CCCCc1nc(O)c(S(=O)(=O)c2ccc(-c3ccnc(F)c3C)cc2)c(O)c1N(CC)c1cc(C)cc(C)c1` [Example 136, 6-butyl-5-((3,5-dimethylphenyl)(ethyl)amino)-3-((4-(2-fluoro-3-methylpyridin-4-yl)phenyl)sulfonyl)pyridine-2,4-diol], the pEC50 is 8.00 to 11.00. On to `CCCCc1nc(O)c(S(=O)(=O)c2ccc(-c3ccccc3C(=O)NC)cc2)c(O)c1N(C)c1cccc(C#N)c1` [Example 137, 4′-((6-butyl-5-((3-cyanophenyl)(methyl)amino)-2,4-dihydroxypyridin-3-yl)sulfonyl)-N-methyl-[1,1′-biphenyl]-2-carboxamide], for which the negative logarithm of the EC50 (pEC50) is 8.00 to 11.00.

`CCCCc1nc(O)c(S(=O)(=O)c2ccc(-c3ccccc3C(N)=O)cc2)c(O)c1N(C)c1cccc(C#N)c1` [Example 138, 4′-((6-butyl-5-((3-cyanophenyl)(methyl)amino)-2,4-dihydroxypyridin-3-yl)sulfonyl)-[1,1′-biphenyl]-2-carboxamide]: the pEC50 is 8.00 to 11.00. For `CCCCc1nc(O)c(S(=O)(=O)c2ccc(-c3ccccc3C(=O)N(C)C)cc2)c(O)c1N(C)c1cccc(C#N)c1` [Example 139, 4′-((6-butyl-5-((3-cyanophenyl)(methyl)amino)-2,4-dihydroxypyridin-3-yl)sulfonyl)-N,N-dimethyl-[1,1′-biphenyl]-2-carboxamide], the pEC50 is 8.00 to 11.00. `CCCCc1nc(O)c(S(=O)(=O)c2ccc(-c3ccccc3C(=O)N(C)C)cc2)c(O)c1N(CC)c1cc(C)cc(C)c1` [Example 140, 4′-((6-butyl-5-((3,5-dimethylphenyl)(ethyl)amino)-2,4-dihydroxypyridin-3-yl)sulfonyl)-N,N-dimethyl-[1,1′-biphenyl]-2-carboxamide]: the pEC50 was 8.00 to 11.00. On to `CCN(c1ccccc1)c1c(-c2cccc(C)c2)nc(O)c(S(=O)(=O)c2ccc(-c3ccccc3C(=O)N(C)C)cc2)c1O` [Example 141, 4′-((5-(ethyl(phenyl)amino)-2,4-dihydroxy-6-(m-tolyl)pyridin-3-yl)sulfonyl)-N,N-dimethyl-[1,1′-biphenyl]-2-carboxamide], for which the pEC50 is 8.00 to 11.00. Take `CCCCc1nc(O)c(S(=O)(=O)c2ccc(-c3ccccc3C(=O)N(C)C)cc2)c(O)c1N1CCCOc2ccccc21` [Example 142, 4′-((6-butyl-5-(3,4-dihydrobenzo[b][1,4]oxazepin-5(2H)-yl)-2,4-dihydroxypyridin-3-yl)sulfonyl)-N,N-dimethyl-[1,1′-biphenyl]-2-carboxamide]: the negative logarithm of the EC50 (pEC50) is 7.00 to 8.00. The result for `CCCCc1nc(O)c(S(=O)(=O)c2ccc(-c3ccccc3C(N)=O)cc2)c(O)c1N(CC)c1cc(C)cc(C)c1` [Example 143, 4′-((6-butyl-5-((3,5-dimethylphenyl)(ethyl)amino)-2,4-dihydroxypyridin-3-yl)sulfonyl)-[1,1′-biphenyl]-2-carboxamide] reads 8.00 to 11.00. As for `CCN(c1ccccc1)c1c(-c2cccc(C)c2)nc(O)c(S(=O)(=O)c2ccc(-c3ccccc3C(N)=O)cc2)c1O` [Example 144, 4′-((5-(ethyl(phenyl)amino)-2,4-dihydroxy-6-(m-tolyl)pyridin-3-yl)sulfonyl)-[1,1′-biphenyl]-2-carboxamide], the pEC50 is 8.00 to 11.00. The result for `CCN(c1ccccc1)c1c(-c2cccc(C)c2)nc(O)c(S(=O)(=O)c2ccc(-c3ccccc3C(=O)NC)cc2)c1O` [Example 145, 4′-((5-(ethyl(phenyl)amino)-2,4-dihydroxy-6-(m-tolyl)pyridin-3-yl)sulfonyl)-N-methyl-[1,1′-biphenyl]-2-carboxamide] reads 8.00 to 11.00; that for `CCCCc1nc(O)c(S(=O)(=O)c2ccc(-c3ccccc3C(=O)NC)cc2)c(O)c1N1CCCOc2ccccc21` [Example 146, 4′-((6-butyl-5-(3,4-dihydrobenzo[b][1,4]oxazepin-5(2H)-yl)-2,4-dihydroxypyridin-3-yl)sulfonyl)-N-methyl-[1,1′-biphenyl]-2-carboxamide], 8.00 to 11.00; that for `CCN(c1ccccc1)c1c(CC2CC2)nc(O)c(S(=O)(=O)c2ccc(-c3ccccc3C(N)=O)cc2)c1O` [Example 147, 4′-((6-(cyclopropylmethyl)-5-(ethyl(phenyl)amino)-2,4-dihydroxypyridin-3-yl)sulfonyl)-[1,1′-biphenyl]-2-carboxamide], 8.00 to 11.00. As for `CCN(c1ccccc1)c1c(-c2ccn(C)n2)nc(O)c(S(=O)(=O)c2ccc(-c3ccccc3C(N)=O)cc2)c1O` [Example 148, 4′-((5-(ethyl(phenyl)amino)-2,4-dihydroxy-6-(1-methyl-1H-pyrazol-3-yl)pyridin-3-yl)sulfonyl)-[1,1′-biphenyl]-2-carboxamide], the pEC50 was 8.00 to 11.00.

Take `CCN(c1ccccc1)c1c(-c2cnn(C)c2)nc(O)c(S(=O)(=O)c2ccc(-c3ccnc(F)c3C)cc2)c1O` [Example 149, 5-(ethyl(phenyl)amino)-3-((4-(2-fluoro-3-methylpyridin-4-yl)phenyl)sulfonyl)-6-(1-methyl-1H-pyrazol-4-yl)pyridine-2,4-diol]: the pEC50 is 8.00 to 11.00. Consider `CCN(c1ccccc1)c1c(-c2cnn(C)c2)nc(O)c(S(=O)(=O)c2ccc(-c3cccnc3C)cc2)c1O` [Example 150, 5-(ethyl(phenyl)amino)-6-(1-methyl-1H-pyrazol-4-yl)-3-((4-(2-methylpyridin-3-yl)phenyl)sulfonyl)pyri-dine-2,4-diol], for which the pEC50 was 8.00 to 11.00. On to `CCN(c1ccccc1)c1c(-c2cnn(C)c2)nc(O)c(S(=O)(=O)c2ccc(-c3ccccc3C(=O)NC)cc2)c1O` [Example 151, 4′-((5-(ethyl(phenyl)amino)-2,4-dihydroxy-6-(1-methyl-1H-pyrazol-4-yl)pyridin-3-yl)sulfonyl)-N-methyl-[1,1′-biphenyl]-2-carboxamide], for which the pEC50 was 8.00 to 11.00. On to `CCN(c1ccccc1)c1c(-c2cnn(C)c2)nc(O)c(S(=O)(=O)c2ccc(-c3ccc(F)nc3C)cc2)c1O` [Example 152, 5-(ethyl(phenyl)amino)-3-((4-(6-fluoro-2-methylpyridin-3-yl)phenyl)sulfonyl)-6-(1-methyl-1H-pyrazol-4-yl)pyridine-2,4-diol], for which the negative logarithm of the EC50 (pEC50) was 8.00 to 11.00. In the case of `CCN(c1ccccc1)c1c(-c2cnn(C)c2)nc(O)c(S(=O)(=O)c2ccc(-c3ccccc3C(=O)NC3CC3)cc2)c1O` [Example 153, N-cyclopropyl-4′-((5-(ethyl(phenyl)amino)-2,4-dihydroxy-6-(1-methyl-1H-pyrazol-4-yl)pyridin-3-yl)sulfonyl)-[1,1′-biphenyl]-2-carboxamide], the pEC50 is 8.00 to 11.00. With `CCN(c1ccccc1)c1c(-c2cnn(C)c2)nc(O)c(S(=O)(=O)c2ccc(-c3ccccc3C(=O)N(C)C)cc2)c1O` [Example 154, 4′-((5-(ethyl(phenyl)amino)-2,4-dihydroxy-6-(1-methyl-1H-pyrazol-4-yl)pyridin-3-yl)sulfonyl)-N,N-dimethyl-[1,1′-biphenyl]-2-carboxamide], the negative-log EC50 (pEC50) is 8.00 to 11.00. The result for `CCN(c1ccccc1)c1c(-c2cnn(C)c2)nc(O)c(S(=O)(=O)c2ccc(-c3ccc(F)cc3C(N)=O)cc2)c1O` [Example 155, 4′-((5-(ethyl(phenyl)amino)-2,4-dihydroxy-6-(1-methyl-1H-pyrazol-4-yl)pyridin-3-yl)sulfonyl)-4-fluoro-[1,1′-biphenyl]-2-carboxamide] reads 8.00 to 11.00. On to `CCN(c1ccccc1)c1c(-c2cnn(C)c2)nc(O)c(S(=O)(=O)c2ccc(-c3ccncc3C)cc2)c1O` [Example 156, 5-(ethyl(phenyl)amino)-6-(1-methyl-1H-pyraozl-4-yl)-3-((4-(3-methylpyridin-4-yl)phenyl)sulfonyl)pyri-dine-2,4-diol], for which the pEC50 was 8.00 to 11.00. Turning to `Cc1nc(F)ccc1-c1ccc(S(=O)(=O)c2c(O)nc(-c3ccn(C)n3)c(N(c3ccccc3)C(C)C)c2O)cc1` [Example 157, 3-((4-(6-fluoro-2-methylpyridin-3-yl)phenyl)sulfonyl)-5-(isopropyl(phen-yl)amino)-6-(1-methyl-1H-pyrazol-3-yl)pyridine-2,4-diol], the pEC50 is 8.00 to 11.00. On to `CNC(=O)c1ccccc1-c1ccc(S(=O)(=O)c2c(O)nc(-c3ccn(C)n3)c(N(c3ccccc3)C(C)C)c2O)cc1` [Example 158, 4′-((2,4-dihydroxy-5-(isopropyl(phen-yl)amino)-6-(1-methyl-1H-pyrazol-3-yl)pyridin-3-yl)sulfonyl)-N-methyl-[1,1′-biphenyl]-2-carboxamide], for which the pEC50 was 8.00 to 11.00. As to `CC(C)N(c1ccccc1)c1c(-c2ccn(C)n2)nc(O)c(S(=O)(=O)c2ccc(-c3ccccc3C(=O)N(C)C)cc2)c1O` [Example 159, 4′-((2,4-dihydroxy-5-(isopropyl(phen-yl)amino)-6-(1-methyl-1H-pyrazol-3-yl)pyridin-3-yl)sulfonyl)-N,N-dimethyl-[1,1′-biphenyl]-2-carboxamide], the pEC50 was 8.00 to 11.00.

Turning to `Cc1c(-c2ccc(S(=O)(=O)c3c(O)nc(-c4ccn(C)n4)c(N4CC(C)(C)c5ccccc54)c3O)cc2)ccnc1F` [Example 160, 5-(3,3-dimethylindolin-1-yl)-3-((4-(2-fluoro-3-methylpyridin-4-yl)phenyl)sulfonyl)-6-(1-methyl-1H-pyrazol-3-yl)pyridine-2,4-diol], the negative logarithm of the EC50 (pEC50) was 7.00 to 8.00.
